Results as given in US20260248819A1, “MULTI-COMPONENT PHARMACEUTICAL COMPOSITIONS AND KITS CONTAINING NITRIC OXIDE RELEASING COMPOUNDS AND METHODS OF USING SAME” (priority 2022, published 2026).

Tests used:
[1] = tested on: Aspergillus fumigatus (strain N0219); test: Checkerboard assay, MD3 combined with a secondary antifungal; format: cell-based
Text: (§1) To quantify the combined effects of MD3 and a secondary antifungal, a checkerboard assay was used as described above in Example 1. The antibiotics tested in this study included voriconazole, a triazole antifungal that inhibits the growth of the fungi causing the infection; itraconazole, an azole antifungal that inhibits the growth of fungi; and amphotericin B, a polyene antifungal that binds to ergosterol in fungal cell membranes, developing holes in the membrane and allowing cell components to leak out, causing cell death.
(§2) The fungal species used in this study included Aspergillus fumigatus (strain N0219) and Candida auris (Strain N0220). The checkerboard method was performed as described above in Example 1. The effects of the antifungal combinations were classified according to the fractional inhibitory concentration index (FICI) as described above in Example 1 at time points of 24 hours and 48 hours.

[2] = tested on: Candida auris (Strain N0220); test: as above; format: cell-based; conditions: for Interaction (at 24 hours) / Lowest FICI (at 24 hours) / Interaction (at 48 hours) / Lowest FICI (at 48 hours): antifungal combined with MD3
Text: as §1, §2

[3] = tested on: M. abscessus strain N0010; test: Checkerboard assay, MD3 combined with a second antibiotic (NTM); format: cell-based, Mycobacterium abscessus; conditions: aerobic
Protocol: (§3) The checkerboard method was performed as follows. MD3 and the second antibiotic were tested at four times (4×) their minimum inhibitory concentration (MIC) alone (see Table 3). Stock solutions of MD3 and the secondary antibiotics were prepared at 4× the final concentration (i.e., 16× the MIC; called the 4× stocks).
(§4) Bacterial cultures were prepared from frozen glycerol stocks stored at −80° C. by streaking on agar plates (see Table 4). Several well-isolated colonies were suspended in IX PBS, then diluted to 1×10^6 CFU/ml in liquid media. The cultures were diluted to 5×10^5 CFU/ml, when added to the antibiotic combinations in the checkerboard assay plate. Because colonies from strains N0010, N0046, and N0124 are difficult to suspend homogenously, they were first sub-cultured in 7H9 liquid media containing Middlebrook ADC supplement and 0.05% Tween-80, then incubated at 37° C. shaking for 3 days. This subculture was used to prepare the 1×10^6 CFU/ml culture.
(§5) To prepare the checkerboard assay plates, phosphate buffered saline (PBS) was added to wells BI through H8 of a 96-well plate. […]
(§6) The FICI was calculated for each well along the growth/no-growth border of the checkerboard assay plate. […]

[4] = tested on: M. abscessus strain N0046; test: as above; format: cell-based, Mycobacterium abscessus subsp. bolletii; conditions: aerobic
Protocol: as §3, §4, §5, §6

[5] = tested on: M. chimaera N0124; test: as above; format: cell-based, Mycobacterium chimaera; conditions: strain N0124, aerobic
Protocol: as §3, §4, §5, §6

[6] = tested on: M. massiliense N0130; test: as above; format: cell-based, Mycobacterium massiliense; conditions: strain N0130, aerobic
Protocol: as §3, §4
(§7) To prepare the checkerboard assay plates, phosphate buffered saline (PBS) was added to wells BI through H8 of a 96-well plate. Next, 200 μl of the 4× second antibiotic stock was added to the empty wells in A1 through A8 of a 96-well plate, then serially diluted 1:1 down the plate using a multichannel pipette, stopping at row G. The final 100 μl from row G was discarded. […] At this step, all wells contain 4× the target concentration of the second antibiotic. Next, 100 μl of the 4× MD3 stock solution was added to wells A1 through H1 and serially diluted 1:1 across the plate to column 7 using a multichannel pipette. The final 100 μl in […] was discarded. […] After this step, all wells contain 2× the target concentrations for both MD3 and the second antibiotic. The wells in column 9 contain media alone, serving as media controls. The wells in column 10 contain media and bacteria, serving as growth controls. Finally, 100 μl of 5×10^5 CFU/ml bacterial culture was added to each well.
The FICI was calculated for each well along the growth/no-growth border of the checkerboard assay plate. If the FICI of any well was greater than 4, antagonism was reported; otherwise, the lowest FICI value was reported. FICI values of ≤0.5 are considered synergistic, values of 0.51 to 1 are additive, and values of greater than 1 to 4 are indifferent. The rationale for this method of analysis is that, if any ratio of MD3:antibiotic is synergistic, then that combination has the potential for synergy, even if other ratios are not synergistic. […] If an experiment was repeated twice and the same classification observed (e.g., synergy observed in both replicates), then the average FICI was reported for that drug combination. […]

[7] = tested on: P. aeruginosa strain PAK (N0049); test: Checkerboard assay, MD3 combined with a second antibiotic; format: cell-based, Pseudomonas aeruginosa; conditions: for Lowest FICI, rep 1 / Lowest FICI, rep 2 / Lowest FICI, rep 3: antibiotic combined with MD3
Protocol: To quantify the combined effects of MD3 and a secondary antibiotic, a checkerboard assay was used, which is a two-dimensional, two-agent serial dilution that quantifies the effect of each drug alone and in combination. In patients with underlying pulmonary disease such as bronchiectasis, significant mucus in the lung results in bacterial infections that are primarily microaerobic (little oxygen) or anaerobic (no oxygen). Therefore, combinations of MD3 and six secondary antibiotics were evaluated under both aerobic and anaerobic conditions for a representative organism, Pseudomonas aeruginosa.
as §3
MD3 and secondary antibiotics were tested at 4× their minimum inhibitory concentration (MIC) alone. […] MD3 and antibiotics were tested across a 7-point range of 2-fold concentration, as detailed in Table 3.
as §4, §7
For experiments in which P. aeruginosa was grown under anaerobic conditions, 90 mM KNO3 was added to the CAMHB media, and the checkerboard assay plates were incubated in an anaerobic box containing anaerobic sachets.
The FICI was calculated for each well along the growth/no-growth border of the checkerboard assay plate. If the FICI of any well was greater than 4, antagonism was reported; otherwise, the lowest FICI value was reported. FICI values of ≤0.5 are considered synergistic, values of 0.51 to 1 are additive, and values of greater than 1 to 4 are indifferent. The rationale for this method of analysis is that, if any ratio of MD3:antibiotic is synergistic, then that combination has the potential for synergy, even if other ratios are not synergistic.

[8] = tested on: S. aureus strain N0040; test: as above; format: cell-based, Staphylococcus aureus; conditions: aerobic
Protocol: as §3, §4, §7
The FICI was calculated for each well along the growth/no-growth border of the checkerboard assay plate. If the FICI of any well was greater than 4, antagonism was reported; otherwise, the lowest FICI value was reported. FICI values of ≤0.5 are considered synergistic, values of 0.51 to 1 are additive, and values of greater than 1 to 4 are indifferent. The rationale for this method of analysis is that, if any ratio of MD3:antibiotic is synergistic, then that combination has the potential for synergy, even if other ratios are not synergistic. […] If an experiment was repeated twice and the same classification observed (e.g., synergy observed in both replicates), then the average FICI was reported for that drug combination. If the results for two duplicates are discordant in their classification, a third experiment must be conducted and the average FICI from the triplicate experiments was used for final classification.

[9] = tested on: planktonic P. aeruginosa; test: Minimum inhibitory concentration (MIC) of an agent alone; format: cell-based; conditions: Pseudomonas aeruginosa, strain PAK grown aerobically
Protocol: MD3 and secondary antibiotics were tested at 4× their minimum inhibitory concentration (MIC) alone. For example, the MICMD3 against P. aeruginosa strain PAK grown aerobically is 31.25 μg/ml, and the MICTOB is 3.125 μg/ml; thus, the highest concentrations tested in the checkerboard assay were 125 µg/ml MD3 and 12.5 μg/ml TOB. MD3 and antibiotics were tested across a 7-point range of 2-fold concentration, as detailed in Table 3.
as §7, with “Finally, 100 μl of 5×10^5 CFU/ml bacterial culture was added to each well.” left out

[10] = tested on: P. aeruginosa biofilms; test: Eradication of P. aeruginosa biofilms (MBEC assay); format: cell-based, Pseudomonas aeruginosa; conditions: aerobic and anaerobic biofilms; treated 18-24 hours
Protocol: The minimum biofilm eradication concentration (MBEC) of MD3 was determined for P. aeruginosa biofilms grown under aerobic and anaerobic conditions. The MBEC is defined as a 3-log reduction in biofilm-associated CFUs. Biofilms were generated using the MBEC Assay™ growth device (Innovotech; Edmonton, Alberta, Canada) in cation-adjusted Mueller-Hinton broth (CAMHB) at 37° C. for 24 hours and treated with MD3 or tobramycin for an additional 18-24 hours. Remaining biofilms were disrupted by sonication and plated to determine the surviving CFU/mL following a single treatment.

[11] = 24 hours, antifungal combined with MD3
[12] = 48 hours, antifungal combined with MD3

CCC(C)n1ncn(-c2ccc(N3CCN(c4ccc(OCC5COC(Cn6cncn6)(c6ccc(Cl)cc6Cl)O5)cc4)CC3)cc2)c1=O (stereo not shown) [Itraconazole, itraconazole]
Lowest FICI (at 24 hours) [1, 11]: 0.625
Lowest FICI (at 48 hours) [1, 12]: 0.5625

C[C@@H](c1ncncc1F)[C@](O)(Cn1cncn1)c1ccc(F)cc1F [Voriconazole, voriconazole]
Interaction (at 24 hours) [1, 11]: Additive
Lowest FICI (at 24 hours) [1, 11]: 0.625
Interaction (at 48 hours) [1, 12]: Additive
Lowest FICI (at 48 hours) [1, 12]: 0.313
Interaction of MD3 with the antifungal (summary) ([1]; time point not separated): at least additive
Interaction (at 24 hours) [2]: Additive
Lowest FICI (at 24 hours) [2]: 0.375
Interaction (at 48 hours) [2]: Additive
Lowest FICI (at 48 hours) [2]: 0.5625
Interaction of MD3 with the antifungal (summary) ([2]; time point not separated): at least additive

C[C@@H]1[C@H](O)[C@@H](C)/C=C/C=C/C=C/C=C/C=C/C=C/C=C/[C@H](O[C@@H]2O[C@H](C)[C@@H](O)[C@H](N)[C@@H]2O)C[C@@H]2O[C@](O)(C[C@@H](O)C[C@@H](O)[C@H](O)CC[C@@H](O)C[C@@H](O)CC(=O)O[C@H]1C)C[C@H](O)[C@H]2C(=O)O [Amphotericin B, amphotericin B]
Interaction (at 24 hours) [2]: Additive
Lowest FICI (at 24 hours) [2]: 0.625
Interaction (at 48 hours) [2]: Additive
Lowest FICI (at 48 hours) [2]: 0.5625

NCC[C@H](O)C(=O)N[C@@H]1C[C@H](N)[C@@H](O[C@H]2O[C@H](CN)[C@@H](O)[C@H](O)[C@H]2O)[C@H](O)[C@H]1O[C@H]1O[C@H](CO)[C@@H](O)[C@H](N)[C@H]1O [AMK, Amikacin]
Lowest FICI, rep 1 [3]: 0.56
Lowest FICI, rep 1 [4]: 0.56
Lowest FICI, rep 1 [5]: 0.75
Lowest FICI, rep 1 [6]: 0.56
Lowest FICI, rep 2 [6]: 0.56

CC[C@H]1OC(=O)[C@H](C)[C@@H](O[C@H]2C[C@@](C)(OC)[C@@H](O)[C@H](C)O2)[C@H](C)[C@@H](O[C@@H]2O[C@H](C)C[C@H](N(C)C)[C@H]2O)[C@](C)(OC)C[C@@H](C)C(=O)[C@H](C)[C@@H](O)[C@]1(C)O [CLR, Clarithromycin]
Lowest FICI, rep 1 [5]: 1.00
Lowest FICI, rep 1 [6]: 0.56
Lowest FICI, rep 2 [6]: 1.00

O=C([O-])CC(O)(CC(=O)[O-])C(=O)[O-].[Ga+3] [GaCi, Gallium citrate]
Lowest FICI, rep 1 ([7]; Aerobic): 0.38
Lowest FICI, rep 2 ([7]; Aerobic): 0.38
Lowest FICI, rep 3 ([7]; Aerobic): 0.25
Lowest FICI, rep 1 [3]: 0.56
Lowest FICI, rep 1 [4]: 0.56
Interaction of MD3 with the antibiotic (FICI classification) [8]: synergistic (FICI values of ≤0.5 are considered synergistic)
Lowest FICI, rep 1 ([8]; combined with MD3): 0.25
Lowest FICI, rep 2 ([8]; combined with MD3): 0.19

CC(C)(O/N=C(\C(=O)N[C@@H]1C(=O)N2C(C(=O)[O-])=C(C[n+]3ccccc3)CS[C@H]12)c1csc(N)n1)C(=O)O [CAZ, ceftazidime]
Lowest FICI, rep 1 ([7]; Aerobic): 0.38
Lowest FICI, rep 2 ([7]; Aerobic): 0.31
Lowest FICI, rep 1 ([7]; Anaerobic): 0.50

NC[C@H]1O[C@H](O[C@H]2[C@H](O)[C@@H](O[C@H]3O[C@H](CO)[C@@H](O)[C@H](N)[C@H]3O)[C@H](N)C[C@@H]2N)[C@H](N)C[C@@H]1O [TOB, Tobramycin]
Lowest FICI, rep 1 ([7]; Aerobic): 0.56
Lowest FICI, rep 2 ([7]; Aerobic): 0.63
Lowest FICI, rep 3 ([7]; Aerobic): 0.56
Lowest FICI, rep 1 ([7]; Anaerobic): 0.56
Interaction of MD3 with the antibiotic (FICI classification) [8]: indifferent (values of greater than 1 to 4 are indifferent)
Lowest FICI, rep 1 ([8]; combined with MD3): 1.03
MIC [9]: 3.12 µg/mL
Biofilm eradication (MBEC, 3-log reduction in biofilm-associated CFUs) [10]: only effective against aerobic biofilms

Gentamicin
Lowest FICI, rep 1 ([7]; Aerobic): 1.06
Interaction of MD3 with the antibiotic (FICI classification) ([7]; aerobic conditions): indifferent (values of greater than 1 to 4 are indifferent)

C[C@@H](O)[C@H]1C(=O)N2C(C(=O)O)=C(S[C@@H]3CN[C@H](C(=O)N(C)C)C3)[C@H](C)[C@H]12 [MER, Meropenem]
Lowest FICI, rep 1 ([7]; Aerobic): 0.53
Lowest FICI, rep 2 ([7]; Aerobic): 0.56
Lowest FICI, rep 1 ([7]; Anaerobic): 0.56

C[C@H]1[C@H](NC(=O)/C(=N\OC(C)(C)C(=O)O)c2csc(N)n2)C(=O)N1S(=O)(=O)O [ATM, Aztreonam]
Lowest FICI, rep 1 ([7]; Aerobic): 0.31
Lowest FICI, rep 2 ([7]; Aerobic): 0.31
Lowest FICI, rep 1 ([7]; Anaerobic): 0.56

Colistin [CST]
Lowest FICI, rep 1 ([7]; Aerobic): 0.56
Lowest FICI, rep 2 ([7]; Aerobic): 0.38
Lowest FICI, rep 1 ([7]; Anaerobic): 0.56

O=C(O)c1cn(C2CC2)c2cc(N3CCNCC3)c(F)cc2c1=O [CIP, Ciprofloxacin]
Lowest FICI, rep 1 ([7]; Aerobic): 0.56
Lowest FICI, rep 2 ([7]; Aerobic): 0.31
Lowest FICI, rep 3 ([7]; Aerobic): 0.56
Lowest FICI, rep 1 ([7]; Anaerobic): 0.56
